Test results taken from PMC11033320, “Activation of p53 signaling and regression of breast and prostate carcinoma cells by spirooxindole-benzimidazole small molecules” (Frontiers in Pharmacology, 2024).

Experiments:
T-47D = assay: NCI anticancer screening, Breast Cancer T-47D; type: cell-based; settings: Homo sapiens, T47D, read-out: % Growth Inhibition (GI %)
From the text: (§1) The compound has been processed according to standard method NCI-60 Human Tumor Cell Lines Screen for organic compound at development therapeutic program (DTP). Requests for access to this national resource can be submitted online at: […]

MDA-MB-468 = assay: NCI anticancer screening, Breast Cancer MDA-MB-468; type: cell-based; settings: Homo sapiens, read-out: % Growth Inhibition (GI %)
From the text: as §1

SF-295 = assay: NCI anticancer screening, CNS Cancer SF-295; type: cell-based; settings: Homo sapiens; SF-295, 10 μM; read-out: % Growth Inhibition (GI %)
From the text: as §1

KM12 = assay: NCI anticancer screening, Colon Cancer KM12; type: cell-based; settings: Homo sapiens; KM12, 10 μM; read-out: % Growth Inhibition (GI %)
From the text: as §1

MCF7 = assay: NCI anticancer screening, Breast Cancer MCF7; type: cell-based; settings: Homo sapiens; MCF7, 10 μM; read-out: % Growth Inhibition (GI %)
From the text: as §1

HCT-15 = assay: NCI anticancer screening, Colon Cancer HCT-15; type: cell-based; settings: Homo sapiens; HCT-15, 10 μM; read-out: % Growth Inhibition (GI %)
From the text: as §1

OVCAR-3 = assay: NCI anticancer screening, Ovarian Cancer OVCAR-3; type: cell-based; settings: Homo sapiens; OVCAR-3, 10 μM; read-out: % Growth Inhibition (GI %)
From the text: as §1

SN12C = assay: NCI anticancer screening, Renal Cancer SN12C; type: cell-based; settings: Homo sapiens, read-out: % Growth Inhibition (GI %)
From the text: as §1

[1] = test system: leukemia cells (CCRF-CEM; HL-60 (TB); K-562; MOLT-4; RPMI-8226, SR); assay: NCI anticancer screening, leukemia subpanel; type: cell-based, human; settings: smaller GI% than the other compounds
From the text: as §1

NCI-H23 = assay: NCI anticancer screening, Non-Small Cell Lung Cancer NCI-H23; type: cell-based; settings: Homo sapiens; NCI-H23, 10 μM; read-out: % Growth Inhibition (GI %)
From the text: as §1

HL-60(TB) = assay: NCI anticancer screening, Leukemia HL-60(TB); type: cell-based; settings: Homo sapiens, read-out: % Growth Inhibition (GI %)
From the text: as §1

HT29 = assay: NCI anticancer screening, Colon Cancer HT29; type: cell-based; settings: Homo sapiens, HT-29; HT29, 10 μM; read-out: % Growth Inhibition (GI %)
From the text: as §1

UACC-62 = assay: NCI anticancer screening, Melanoma UACC-62; type: cell-based; settings: Homo sapiens; UACC-62, 10 μM; read-out: % Growth Inhibition (GI %)
From the text: as §1

HS 578T = assay: NCI anticancer screening, Breast Cancer HS 578T; type: cell-based; settings: Homo sapiens, read-out: % Growth Inhibition (GI %)
From the text: as §1

NCI-H522 = assay: NCI anticancer screening, Non-Small Cell Lung Cancer NCI-H522; type: cell-based; settings: Homo sapiens; NCI-H522, 10 μM; read-out: % Growth Inhibition (GI %)
From the text: as §1

SF-539 = assay: NCI anticancer screening, CNS Cancer SF-539; type: cell-based; settings: Homo sapiens; SF-539, 10 μM; read-out: % Growth Inhibition (GI %)
From the text: as §1

LOX IMVI = assay: NCI anticancer screening, Melanoma LOX IMVI; type: cell-based; settings: Homo sapiens, read-out: % Growth Inhibition (GI %)
From the text: as §1

NCI-H322M = assay: NCI anticancer screening, Non-Small Cell Lung Cancer NCI-H322M; type: cell-based; settings: Homo sapiens, read-out: % Growth Inhibition (GI %)
From the text: as §1

SK-MEL-5 = assay: NCI anticancer screening, Melanoma SK-MEL-5; type: cell-based; settings: Homo sapiens; SK-MEL-5, 10 μM; read-out: % Growth Inhibition (GI %)
From the text: as §1

[2] = MTT cytotoxicity to normal human lung fibroblast Wi-38 cell line; type: cell-based; settings: Wi-38 normal lung fibroblast cells, mean ± SEM, read-out: percentage of Wi-38 viability
Description: Normal human lung fibroblast Wi-38 cell line was used to detect cytotoxicity of the studied compounds (Table S8). Wi-38 cell line was cultured in DMEM medium-contained 10% fetal bovine serum (FBS), seeded as 5x10^3 cells per well in 96-well cell culture plate and incubated at 37 °C in 5% CO2 incubator. After 24 h for cell attachment, serial concentrations of the synthetic compounds were incubated with Wi-38 cells for 72 h. Cell viability was assayed by MTT method (Mosmann, 1983). Twenty microliters of 5 mg/ml MTT (Sigma, USA) was added to each well and the plate was incubated at 37 °C for 3 h. Then MTT solution was removed, 100 µl DMSO was added and the absorbance of each well was measured with a microplate reader (BMG LabTech, Germany) at 570 nm.

A549/ATCC = assay: NCI anticancer screening, Non-Small Cell Lung Cancer A549/ATCC; type: cell-based; settings: Homo sapiens, read-out: % Growth Inhibition (GI %)
From the text: as §1

U251 = assay: NCI anticancer screening, CNS Cancer U251; type: cell-based; settings: Homo sapiens, U-251; U251, 10 μM; read-out: % Growth Inhibition (GI %)
From the text: as §1

NCI-H226 = assay: NCI anticancer screening, Non-Small Cell Lung Cancer NCI-H226; type: cell-based; settings: Homo sapiens; NCI-H226, 10 μM; read-out: % Growth Inhibition (GI %)
From the text: as §1

COLO 205 = assay: NCI anticancer screening, Colon Cancer COLO 205; type: cell-based; settings: Homo sapiens; COLO 205, 10 μM; read-out: % Growth Inhibition (GI %)
From the text: as §1

[3] = target: T1, Mdm2 (residues 1–118 T47W) (Homo sapiens, UniProt Q00987, T47W); assay: MDM2 binding by microscale thermophoresis (MST)
T1 construct: Mdm2 (residues 1–118 T47W; 500 nM)
T1 sequence (Q00987 1-118 T47W): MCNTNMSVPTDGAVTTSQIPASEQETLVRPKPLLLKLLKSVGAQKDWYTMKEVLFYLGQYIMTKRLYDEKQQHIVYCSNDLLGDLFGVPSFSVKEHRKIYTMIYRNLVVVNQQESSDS
Description: MST is a complementary biophysical assay to assess the binding of a small molecule to its receptor. […] Experiments were performed in 50 mM phosphate buffer at pH 7.4 containing 150 mM NaCl, 5 mM DTT, and 5% DMSO. […] Kd values and uncertainties were calculated using the MO Affinity Analysis software.

SK-OV-3 = assay: NCI anticancer screening, Ovarian Cancer SK-OV-3; type: cell-based; settings: Homo sapiens; SK-OV-3, 10 μM; read-out: % Growth Inhibition (GI %)
From the text: as §1

SMILES | inhibition at 10 µM (T-47D) | inhibition at 10 µM (MDA-MB-468) | inhibition at 10 µM (SF-295) | inhibition at 10 µM (KM12) | inhibition at 10 µM (MCF7) | inhibition at 10 µM (HCT-15) | inhibition at 10 µM (OVCAR-3) | inhibition at 10 µM (SN12C) | inhibition at 10 µM (NCI-H23) | inhibition at 10 µM (HL-60(TB)) | inhibition at 10 µM (HT29) | inhibition at 10 µM (UACC-62) | inhibition at 10 µM (HS 578T) | inhibition at 10 µM (NCI-H522) | inhibition at 10 µM (SF-539) | inhibition at 10 µM (LOX IMVI) | inhibition at 10 µM (NCI-H322M) | inhibition at 10 µM (SK-MEL-5) | viability at 72 h, 5 µM [2] | inhibition at 10 µM (A549/ATCC) | also measured
O=C(c1nc2ccccc2[nH]1)[C@H]1[C@H](c2ccc(Cl)cc2Cl)C2CSCN2[C@]12C(=O)Nc1ccccc12 (stereo partly drawn) [Compound 6g, (3S,6′R)-6'-(1H-Benzo [d]imidazole-2-carbonyl)-7'-(2,4-dichlorophenyl)-3′,6′,7′,7a′-tetrahydro-1′H-spiro [indoline-3.5′-pyrrolo [1,2-c]thiazol]-2-one] | 54.4% | 69.2% | 63.7% | 52.3% | 51% | 56% | 69.7% | 63% | 85.4% | 80.7% | 61.9% | 57% | 65.1% | 71.7% | 76.4% | 67.2% | 79.5% | 81.9% | 40 ± 1.1% | 62% | GI% for MOLT-4, RPMI-8226, and SR cancer cells [1]: 75%; melting point: 235 to 237 °C; inhibition at 10 µM (U251): 79%; inhibition at 10 µM (NCI-H226): 61.8%
O=C(c1nc2ccccc2[nH]1)[C@H]1[C@H](c2ccccc2)C2CSCN2[C@]12C(=O)Nc1ccccc12 (mixture of isomers) [Compound 6a, (3S,6′R)-6'-(1H-benzo [d]imidazole-2-carbonyl)-7′-phenyl-3′,6′,7′,7a′-tetrahydro-1′H-spiro [indoline-3.5′-pyrrolo [1,2-c]thiazol]-2-one] | 88% | 100% | 104% | 105% | 98.1% | 109% | 110% | 106% | 104% | 101% | 98.8% | 95.7% | 103% | 93.7% | 95.1% | 98.7% | 98.1% | 92.7% | > 81% | 98.7% | inhibition at 10 µM (COLO 205): 99.9%; Kd [3]: 87.7 µM; inhibition at 10 µM (SK-OV-3): 99.1%; inhibition at 10 µM (U251): 93.9%; inhibition at 10 µM (NCI-H226): 95.3%
Cc1ccc([C@@H]2C3CSCN3[C@]3(C(=O)Nc4ccccc43)[C@H]2C(=O)c2nc3ccccc3[nH]2)cc1 (mixture of isomers) [Compound 6d, (3S,6′R)-6'-(1H-Benzo [d]imidazole-2-carbonyl)-7'-(p-tolyl)-3′,6′,7′,7a′-tetrahydro-1′H-spiro [indoline-3.5′-pyrrolo [1,2-c]thiazol]-2-one] | 68.8% | 63.5% | 59% | 75.4% | 70.4% | 83.6% | 89% | 85.2% | 91.2% | 96.2% | 69.2% | 78% | 78.6% | 84.3% | 81.9% | 82% | 83.1% | 83.3% | > 81% | 75.4% | inhibition at 10 µM (COLO 205): 81.9%; Kd [3]: 17.4 µM; inhibition at 10 µM (SK-OV-3): 94.2%; inhibition at 10 µM (U251): 73.3%; inhibition at 10 µM (NCI-H226): 73.9%
O=C(c1nc2ccccc2[nH]1)[C@H]1[C@H](c2ccc(Cl)cc2)C2CSCN2[C@]12C(=O)Nc1ccccc12 (stereo partly drawn) [Compound 6b, (3S,6′R)-6'-(1H-Benzo [d]imidazole-2-carbonyl)-7'-(4-chlorophenyl)-3′,6′,7′,7a′-tetrahydro-1′H-spiro [indoline-3.5′-pyrrolo [1,2-c]thiazol]-2-one] | 59.9% | 89.4% | 77.5% | 66.5% | 74.7% | 76.6% | 86.4% | 80.7% | 81.4% | 98.3% | 80.9% | 73.9% | 72.1% | 87.9% | 84.1% | 76.6% | 93.5% | 91.6% | 49.6 ± 1.19% | 81.4% | GI% for MOLT-4, RPMI-8226, and SR cancer cells [1]: 75%; melting point: 210 to 212 °C; inhibition at 10 µM (U251): 81.2%; inhibition at 10 µM (NCI-H226): 74%
O=C(c1nc2ccccc2[nH]1)[C@H]1[C@H](c2ccc(Br)cc2)C2CSCN2[C@]12C(=O)Nc1ccccc12 (stereo partly drawn) [Compound 6l, (3S,6′R)-6'-(1H-Benzo [d]imidazole-2-carbonyl)-7'-(4-bromophenyl)-3′,6′,7′,7a′-tetrahydro-1′H-spiro [indoline-3.5′-pyrrolo [1,2-c]thiazol]-2-one] | 54.7% | 87.2% | 63.9% | 59.8% | 60.6% | 67% | 79.8% | 82.8% | 75% | 89.9% | 80.2% | 70.5% | 67.6% | 91.2% | 82.4% | 73.2% | 89.9% | 84.8% | 37.4 ± 2.02% | 73% | GI% for MOLT-4, RPMI-8226, and SR cancer cells [1]: 75%; Kd [3]: 49.9 µM; melting point: 172 to 174 °C; inhibition at 10 µM (U251): 75.8%; inhibition at 10 µM (NCI-H226): 74.8%
